Test results as given in patent US10619138B2, “Herbicide-resistant hydroxyphenylpyruvate dioxygenases” (BASF SE, priority 2013, dated 2020).
Values joined by “and” are separate entries in the source; they are usually repeats but may differ in a detail not shown here. Equal entries are not always repeated.

Tests used:
[1] = tested on: Acidobacterium HPPD (SEQ ID NO: 30); experiment: In vitro HPPD activity assay, tolerance index; format: biochemical, Acidobacterium capsulatum; conditions: normalized on Arabidopsis wild-type HPPD
Procedure: (§1) The activity assay for HPPD is based on the analysis of homogentisic acid by reversed phase HPLC.
(§2) The assay mixture can contain 150 mM potassium phosphate buffer pH 7.0, 50 mM L-ascorbic acid, 100 μM Catalase (Sigma-Aldrich), 1 μM FeSO4 and 0.2 units of purified HPPD enzyme in a total volume of 505 μl. 1 unit is defined as the amount of enzyme that is required to produce 1 nmol of HGA per minute at 20° C.
(§3) The reaction is allowed to proceed for 45 min at room temperature. The reaction is stopped by the addition of 50 μl of 4.5 M phosphoric acid. The sample is filtered using a […] pore size PVDF filtration device.
(§4) 5 μl of the cleared sample is analyzed on an UPLC HSS T3 column (particle size 1.8 μm, dimensions 2.1×50 mm; Waters) by isocratic elution using 90% 20 mM NaH2PO4 pH 2.2, 10% methanol (v/v).
(§5) HGA is detected electrochemically at 750 mV (mode: DC; polarity: positive) and quantified by integrating peak areas (Empower software; Waters).
(§6) Inhibitors are dissolved in DMSO (dimethylsulfoxide) to a concentration of 0.5 mM. From this stock solution serial five-fold dilutions are prepared in DMSO, which are used in the assay. The respective inhibitor solution accounts for 1% of the assay volume. Thus, final inhibitor concentrations range from 5 μM to 320 pM, respectively. Activities are normalized by setting the uninhibited enzyme activity to 100%. IC50 values are calculated using non-linear regression.
(§7) Using methods which are described in the above examples or well known in the art, purified, recombinant wildtype HPPD enzymes are characterized with respect to their kinetic properties and sensitivity towards HPPD inhibiting herbicides. Apparent michaelis constants (Km) and maximal reaction velocities (Vmax) are calculated by non-linear regression with the software GraphPad Prism 5 (GraphPad Software, La Jolla, USA) using a substrate inhibition model. […] Weighted means (by standard error) of Km and IC50 values are calculated from at least three independent experiments. The Cheng-Prusoff equation for competitive inhibition (Cheng, Y. C.; Prusoff, W. H. Biochem Pharmacol 1973, 22, 3099-3108) is used to calculate dissociation constants (Ki).
(§8) Field performance of the HPPD enzyme, which is used as a herbicide tolerance trait may depend not only on its lack of sensitivity towards HPPD inhibiting herbicides but also on its activity. To assess the potential performance of a herbicide tolerance trait a tolerance index (TI) is calculated using the following formula: […]
(§9) Easy comparison and ranking of each trait is enabled by normalizing tolerance indexes on Arabidopsis wild-type HPPD.

[2] = tested on: Mucilaginibacter HPPD (SEQ ID NO: 28); experiment: In vitro HPPD activity assay, tolerance index; format: biochemical, Mucilaginibacter paludis; conditions: normalized on Arabidopsis wild-type HPPD
Procedure: as §1, §2, §3, §4, §5, §6, §7, §8, §9

[3] = tested on: Pontibacter HPPD (SEQ ID NO: 16); experiment: In vitro HPPD activity assay, tolerance index; format: biochemical, Pontibacter sp.; conditions: normalized on Arabidopsis wild-type HPPD
Procedure: as §1, §2, §3, §4, §5, §6, §7, §8, §9

[4] = tested on: untransformed wild-type (WT) Arabidopsis plants; experiment: Greenhouse herbicide spray test, wild-type plants; format: in vivo, Arabidopsis thaliana; conditions: two weeks after treatment, mean of three plants
Excerpt: (§10) Additionally, T1 and T2 transgenic Arabidopsis plants can be tested for improved tolerance to HPPD-inhibiting herbicides in greenhouse studies. Herbicide injury scoring is done 2-3 weeks after treatment and is rated on a scale of 0 to 100%, 0% being no injury and 100% being complete death.
(§11) Transgenic Arabidopsis plants were sprayed with a range of doses from 1.56-50 g/ha with HPPD-inhibiting herbicides and injury evaluations were taken two weeks after treatment. […] As depicted in Table 6, control plants are severely injured by all doses of herbicide applied, with at least 70% of leaf material being damaged at the lowest application rate. For example, transgenic plants expressing Scenedesmus HPPD have an excellent tolerance to all herbidcides tested. […] After application of Inhibitor 2, only 18% of leaf material was damaged resulting in a 5-fold tolerance compared to the WT at the highest application rate.

[5] = tested on: transgenic Arabidopsis plants expressing Acidobacterium HPPD; experiment: Greenhouse herbicide spray test, transgenic plants (T2); format: in vivo, Arabidopsis thaliana; conditions: for Injury evaluation, scale 0-100% / tolerance of transgenic plants (in words): two weeks after treatment; for tolerance of transgenic plants (in words): doses 1.56-50 g/ha
Excerpt: as §10, §11

[6] = tested on: transgenic Arabidopsis plants expressing Algoriphagus HPPD; experiment: as above; format: in vivo, Arabidopsis thaliana; conditions: two weeks after treatment
Excerpt: as §10, §11

[7] = tested on: transgenic Arabidopsis plants expressing Scenedesmus HPPD; experiment: as above; format: in vivo, Arabidopsis thaliana; conditions: for Injury evaluation, scale 0-100% / tolerance of transgenic plants (in words): two weeks after treatment; for tolerance of transgenic plants (in words): doses 1.56-50 g/ha
Excerpt: as §10, §11

[8] = Acidobacterium HPPD Event 1, 3.125 g/ha
[9] = Acidobacterium HPPD Event 1, 6.25 g/ha
[10] = Acidobacterium HPPD Event 1, 12.5 g/ha
[11] = Acidobacterium HPPD Event 2, 3.125 g/ha
[12] = Acidobacterium HPPD Event 2, 6.25 g/ha
[13] = Acidobacterium HPPD Event 2, 12.5 g/ha
[14] = Algoriphagus HPPD Event 1, 3.125 g/ha
[15] = Algoriphagus HPPD Event 1, 6.25 g/ha
[16] = Algoriphagus HPPD Event 1, 12.5 g/ha
[17] = Algoriphagus HPPD Event 2, 3.125 g/ha
[18] = Algoriphagus HPPD Event 2, 6.25 g/ha
[19] = Algoriphagus HPPD Event 2, 12.5 g/ha
[20] = Scenedesmus HPPD Event 1, 3.125 g/ha
[21] = Scenedesmus HPPD Event 1, 6.25 g/ha
[22] = Scenedesmus HPPD Event 1, 12.5 g/ha
[23] = Scenedesmus HPPD Event 2, 3.125 g/ha
[24] = Scenedesmus HPPD Event 2, 6.25 g/ha
[25] = Scenedesmus HPPD Event 2, 12.5 g/ha

| SMILES | TI (normalized tolerance index) [1] | TI (normalized tolerance index) [2] | TI (normalized tolerance index) [3] | Injury evaluation, scale 0-100% ([4]; 3.125 g/ha) [%] | Injury evaluation, scale 0-100% ([4]; 12.5 g/ha) [%] | Injury evaluation, scale 0-100% [5, 8] [%] | Injury evaluation, scale 0-100% [5, 9] [%] | Injury evaluation, scale 0-100% [5, 10] [%] | Injury evaluation, scale 0-100% [5, 11] [%] | Injury evaluation, scale 0-100% [5, 12] [%] | Injury evaluation, scale 0-100% [5, 13] [%] | Injury evaluation, scale 0-100% [6, 14] [%] | Injury evaluation, scale 0-100% [6, 15] [%] | Injury evaluation, scale 0-100% [6, 16] [%] | Injury evaluation, scale 0-100% [6, 17] [%] | Injury evaluation, scale 0-100% [6, 18] [%] | Injury evaluation, scale 0-100% [6, 19] [%] | Injury evaluation, scale 0-100% [7, 20] [%] | Injury evaluation, scale 0-100% [7, 21] [%] | tolerance of transgenic plants (in words) [7] | further results |
| --- | --- | --- | --- | --- | --- | --- | --- | --- | --- | --- | --- | --- | --- | --- | --- | --- | --- | --- | --- | --- | --- |
| CSc1c(Cl)cc(F)c(C(=O)Nc2nnnn2C)c1Cl [Inhibitor 11, 2,4-dichloro-6-fluoro-3-methylsulfanyl-N-(1-methyltetrazol-5-yl)benzamide] | 0.1 | 0.2 | 0 | 70 | 83 | 53 | 65 | 98 | 58 | 93 | 98 | 55 | 73 | 98 | 68 | 90 | 97 | 13 | 15 | outstanding tolerance | Injury evaluation, scale 0-100% [7, 22]: 33%; Injury evaluation, scale 0-100% [7, 23]: 13%; Injury evaluation, scale 0-100% [7, 24]: 13%; Injury evaluation, scale 0-100% [7, 25]: 15% |
| CS(=O)(=O)c1ccc(C(=O)C2C(=O)CCCC2=O)c([N+](=O)[O-])c1 [Inhibitor 2, 2-(4-methylsulfonyl-2-nitro-benzoyl)cyclohexane-1,3-dione] | 0.6 | 0.6 | 0.1 | 93 | – | 8 | 45 | – | 33 | 55 | – | 53 | 65 | – | 60 | 75 | – | 13 | 18 | outstanding tolerance | Injury evaluation, scale 0-100% ([4]; 1.56 g/ha): 83%; Injury evaluation, scale 0-100% ([4]; 6.25 g/ha): 93%; Injury evaluation, scale 0-100% ([5]; Acidobacterium HPPD Event 1, 1.56 g/ha): 8%; Injury evaluation, scale 0-100% ([5]; Acidobacterium HPPD Event 2, 1.56 g/ha): 10%; leaf damage ([5]; at the lowest application rate, both events): 8-10%; tolerance of transgenic plants (in words) [5]: significantly increased tolerance; Injury evaluation, scale 0-100% ([6]; Algoriphagus HPPD Event 1, 1.56 g/ha): 48%; Injury evaluation, scale 0-100% ([6]; Algoriphagus HPPD Event 2, 1.56 g/ha): 45%; Injury evaluation, scale 0-100% ([7]; Scenedesmus HPPD Event 1, 1.56 g/ha): 10%; Injury evaluation, scale 0-100% ([7]; Scenedesmus HPPD Event 2, 1.56 g/ha): 23%; Injury evaluation, scale 0-100% [7, 23]: 38%; Injury evaluation, scale 0-100% [7, 24]: 38%; tolerance compared to the WT ([7]; at the highest application rate): 5 fold |
| CN(c1c(Cl)ccc(C2=C(O)c3ncccc3C(C)(C)S2(=O)=O)c1Cl)S(C)(=O)=O [Inhibitor 4, N-[2,6-dichloro-3-(8-hydroxy-5,5-dimethyl-6,6-dioxo-thiopyrano[4,3-b]pyridin-7-yl)phenyl]-N-methyl-methanesulfonamide] | 64 and 64.3 | 13.5 | 16.4 | – | 75 | – | – | 20 | – | – | 23 | – | – | 40 | – | – | 33 | – | – | outstanding tolerance | Injury evaluation, scale 0-100% ([4]; 25 g/ha): 83%; Injury evaluation, scale 0-100% ([4]; 50 g/ha): 85%; Injury evaluation, scale 0-100% ([5]; Acidobacterium HPPD Event 1, 25 g/ha): 25%; Injury evaluation, scale 0-100% ([5]; Acidobacterium HPPD Event 1, 50 g/ha): 35%; Injury evaluation, scale 0-100% ([5]; Acidobacterium HPPD Event 2, 25 g/ha): 25%; Injury evaluation, scale 0-100% ([5]; Acidobacterium HPPD Event 2, 50 g/ha): 60%; leaf material harmed ([5]; after application of 12.5 g/ha, both events): 20-23%; tolerance of transgenic plants (in words) [5]: not severly injured; Injury evaluation, scale 0-100% ([6]; Algoriphagus HPPD Event 1, 25 g/ha): 45%; Injury evaluation, scale 0-100% ([6]; Algoriphagus HPPD Event 1, 50 g/ha): 50%; Injury evaluation, scale 0-100% ([6]; Algoriphagus HPPD Event 2, 25 g/ha): 33%; Injury evaluation, scale 0-100% ([6]; Algoriphagus HPPD Event 2, 50 g/ha): 60%; Injury evaluation, scale 0-100% [7, 22]: 13%; Injury evaluation, scale 0-100% ([7]; Scenedesmus HPPD Event 1, 25 g/ha): 18%; Injury evaluation, scale 0-100% ([7]; Scenedesmus HPPD Event 1, 50 g/ha): 65%; Injury evaluation, scale 0-100% [7, 25]: 20%; Injury evaluation, scale 0-100% ([7]; Scenedesmus HPPD Event 2, 25 g/ha): 25%; Injury evaluation, scale 0-100% ([7]; Scenedesmus HPPD Event 2, 50 g/ha): 25% |
